Results on 7 molecules are retold here after EPA's ToxValDB 9.5.

Structures are written as SMILES. Several values for one entry are separate records, joined by “and”; a condition that tells them apart may be missing. Identical values can stand only once.

The test system of series [1] is Homo sapiens. The following applies: clinical; oral; Cholinesterase: Decreased cholinesterase activity.
The test system of series [2] is Rattus norvegicus. Particulars: subchronic; duration: 6 weeks; inhalation; whole body; M; Sprague-Dawley; neurological.
In series [3] the test system is Homo sapiens. Particulars: clinical; duration: 30 days; oral; capsule; M; neurological.
The next series has as its system Gallus sp. The following applies: repeat dose other; oral.
Series [4] relates to Rattus norvegicus. The following applies: for LD50: acute.
For a further series, the system named is Sus scrofa. Particulars: chronic; duration: 123 days; dermal; Not specified.
A further series concerns Cricetulus sp. The following applies: duration: 1 days, injection, Other.
The test system of series [5] is Oryctolagus sp.
The next series relates to Monkey. The following applies: chronic, duration: 18 months.
For another series, the system named is Canidae. Particulars: chronic; duration: 23 weeks; oral; gavage; Beagle.
For series [6], the system named is Rattus norvegicus. The series is described as follows: LC0; higher = less toxic. Particulars: acute; inhalation; Sprague-Dawley.
Series [7] deals with Homo sapiens. Particulars: clinical, oral.
Series [8] concerns Rattus norvegicus. The series is described as follows: LD0; higher = less toxic. The following applies: acute; oral; gavage.
For series [9], the system named is Oryctolagus sp. The series is described as follows: LD0; higher = less toxic. The following applies: acute; dermal; New Zealand.
The mark [10] stands for this setting: chronic, duration: 18 months, oral, gavage, Sprague-Dawley.
Where [11] appears, read: subchronic, duration: 13 weeks, inhalation, Sprague-Dawley.
Where [12] appears, read: subchronic, duration: 30 days, dermal, New Zealand.

Take `CCOP(=S)(OCC)Oc1ccc([N+](=O)[O-])cc1` [Parathion]: the NOAEL is 0.064 mg/kg-day in the series on Homo sapiens [1], 0.01 mg/m3 with Rattus norvegicus [2] and 0.09 mg/kg-day in the series on Homo sapiens [3].
In the series on Gallus sp., `Clc1cc2oc3cc(Cl)c(Cl)cc3c2cc1Cl` [2,3,7,8-Tetrachlorodibenzofuran] had an LOAEL of 1e-05 mg/kg-day and an NOAEL of 1e-06 mg/kg-day.
`CS(C)=O` [Dimethyl sulfoxide]: the LD50 is 40000 mg/kg with Rattus norvegicus [4] (dermal); 5360 mg/kg with Rattus norvegicus [4] (injection, intravenous); 28300 mg/kg with Rattus norvegicus [4] (oral, gavage); 50000 mg/kg in the series with Mus musculus (acute, dermal); 3100 mg/kg and 5750 mg/kg in the series on Mus musculus (acute, injection, intravenous); ≥ 19200 mg/kg and ≤ 22000 mg/kg with Mus musculus (acute, oral). Also, the LOAEL was found to be 9900 mg/kg-day in the series on Rattus norvegicus [4] (setting [10]); 1650 mg/kg-day with Oryctolagus sp. [5] (chronic, duration: 6 months, dermal, New Zealand); 1650 mg/kg-day in the series with Oryctolagus sp. [5] (chronic, duration: 22 weeks, dermal, New Zealand); 5000 mg/kg-day in the series on Oryctolagus sp. [5] (setting [12]); 8910 mg/kg-day with Monkey (oral, gavage); 2000 mg/kg-day in the series on Mus musculus (short-term, duration: 3 weeks, oral, gavage, Swiss). Besides, the LOAEL in the series with Canidae was 2500 mg/kg-day. The NOAEL in the series on Rattus norvegicus [4] (setting [10]) was 1100 mg/kg-day; in the series with Rattus norvegicus [4] (developmental, duration: 1 days, injection, subcutaneous, Sprague-Dawley) it was < 10200 mg/kg-day; in the series on Rattus norvegicus [4] (reproduction developmental, duration: 6 days, oral, gavage, Wistar, generation: F1), 10000 mg/kg-day; in the series on Rattus norvegicus [4] (reproduction developmental, duration: 10 days, injection, Intraperitoneal, F) it was < 2000 mg/kg-day; in the series on Rattus norvegicus [4] (reproduction developmental, oral, gavage, Sprague-Dawley, generation: F0), 5000 mg/kg-day; in the series with Rattus norvegicus [4] (reproduction developmental, oral, gavage, Sprague-Dawley, generation: F1), 5000 mg/kg-day. Moreover, the NOAEL in the series on Sus scrofa is 825 mg/kg-day; in the series with Cricetulus sp. (developmental, Intraperitoneal), < 5500 mg/kg-day; in the series with Cricetulus sp. (developmental, intravenous, intraperitoneal), 2500 mg/kg-day; in the series with Cricetulus sp. (reproduction developmental, Intraperitoneal, F), < 5500 mg/kg-day; in the series on Cricetulus sp. (reproduction developmental, intravenous, intraperitoneal, F), 2500 mg/kg-day; in the series with Oryctolagus sp. [5] (developmental, duration: 9 days, injection, subcutaneous), 4000 mg/kg-day. The NOAEL in the series on Oryctolagus sp. [5] (developmental, duration: 9 days, oral, gavage) amounted to 5000 mg/kg-day; with Oryctolagus sp. [5] (developmental, injection, subcutaneous), 4000 mg/kg-day; in the series with Oryctolagus sp. [5] (setting [12]) it was 1000 mg/kg-day; with Oryctolagus sp. [5] (subchronic, duration: 90 days, dermal, New Zealand) it was 2200 mg/kg-day; with Monkey (dermal), 8910 mg/kg-day; in the series with Monkey (oral, gavage), 2970 mg/kg-day. Besides, the NOAEL with Mus musculus (developmental, duration: 7 days, oral, gavage, Swiss) amounted to 12000 mg/kg-day; with Mus musculus (subchronic, duration: 5 weeks, injection, Intraperitoneal, Swiss) it was 2500 mg/kg-day. In addition, the NOAEC in the series with Rattus norvegicus [4] (subchronic, duration: 6 weeks, inhalation, Sprague-Dawley) was 0.2 mg/L; with Rattus norvegicus [4] (setting [11]) it was 0.964 mg/L. In addition, in the series with Rattus norvegicus [4] (setting [11]), the LOAEC amounted to 2.78 mg/L. In the series with Rattus norvegicus [6], the LC0 is > 2.9 mg/L.
For the molecule `CN(C)[C@@H]1C(=O)C(C(N)=O)=C(O)[C@@]2(O)C(=O)C3=C(O)c4c(O)cccc4[C@@](C)(O)[C@H]3[C@H](O)[C@@H]12` [Oxytetracycline], in the series with Homo sapiens [7] (Selection of resistant enterobacteriaceae), the NOEL was 0.033 mg/kg-day.
`CC1(C)[C@@H](O[C@H]2O[C@H](C(=O)O)[C@@H](O)[C@H](O)[C@H]2O[C@@H]2O[C@H](C(=O)O)[C@@H](O)[C@H](O)[C@H]2O)CC[C@]2(C)[C@H]3C(=O)C=C4[C@@H]5C[C@@](C)(C(=O)O)CC[C@]5(C)CC[C@@]4(C)[C@]3(C)CC[C@@H]12` [Glycyrrhizin] had an NOAEL in the series on Homo sapiens [7] (duration: 8 weeks, capsule, F, Inhibition of the type-2 11b-hsd, with a consequent increase in concentrations of cortisol) of 2 mg/kg-day.
`FC(F)(Cl)C(F)(F)Cl` [1,2-Dichloro-1,1,2,2-tetrafluoroethane]: the LD0 in the series on Rattus norvegicus [8] was > 2250 mg/kg. In the series on Mus musculus (acute, inhalation), this molecule came in with an LC50 of 4.89e+06 mg/m3.
For `CC12C=CC(C1)C1C(=O)OC(=O)C12` (stereo not given) [1,2,3,6-Tetrahydromethyl-3,6-methanophthalic anhydride], the LD0 with Oryctolagus sp. [9] is > 2000 mg/kg. For the same molecule, the LD50 in the series on Rattus norvegicus [4] (dermal) was 4920 mg/kg and ≥ 3670 mg/kg and ≤ 6590 mg/kg; in the series on Rattus norvegicus [4] (oral) it was 914 mg/kg; in the series on Rattus norvegicus [4] (oral, gavage, Sprague-Dawley) it was 958 mg/kg and ≥ 856 mg/kg and ≤ 1080 mg/kg.

In general, NOAEL refers to the highest dose or exposure tested at which no adverse effect was seen. Usually LOAEL stands for the lowest dose or exposure tested at which an adverse effect was seen. Usually LD50 stands for the dose at which mortality reaches 50%.
